Values quoted from earlier work, collected in patent US9694080B2, “Polymer release system” (EGALET LTD., priority 2001, dated 2017).

| SMILES | dose linearity range (literature) [mg] | absorption in the large intestine, share of the total absorption (timed-release capsules, Nolte et al) | beta effect relative to S(−) (β1 and β2) | α effect relative to S(−) (α-adrenoceptor) |
| --- | --- | --- | --- | --- |
| COc1ccccc1OCCNCC(O)COc1cccc2[nH]c3ccccc3c12 (stereo not shown) [Carvedilol] | 6.25 to 50 | approximately 10% |  |  |
| COc1ccccc1OCCNC[C@@H](O)COc1cccc2[nH]c3ccccc3c12 [R(+)] |  |  | 1/100 | the same α effect |
